Reference: PubChem BioAssay AID2060491 (Molecular Pharmacology Branch, DTP, NCI, 2025)

Tested on: 857933-349-R-J2-PDC complex spheroids, viability
Assay: Anticancer human tumor 857933-349-R-J2-PDC patient-derived colon adenocarcinoma cell line growth inhibition [GQUAD]
Settings: for IC50: curve of first compound; for viability, T/C: stronger effect = lower value
Outline: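 Viability of tumor cells grown as complex spheroids with endothelial and stromal cells, exposed to drug combinations. Top concentration at or near clinical Cmax (else 10 microM), diluted in half-log increments.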

[1] = second compound 0.0316 µM, first compound 0.0316 µM
[2] = second compound 0.0316 µM, first compound 0.1 µM
[3] = second compound 0.0316 µM, first compound 0.316 µM
[4] = second compound 0.0316 µM, first compound 1 µM
[5] = second compound 0.0316 µM, first compound 3.16 µM
[6] = second compound 0.0316 µM, first compound 10 µM
[7] = second compound 0.1 µM, first compound 0.0316 µM
[8] = second compound 0.1 µM, first compound 0.1 µM
[9] = second compound 0.1 µM, first compound 0.316 µM
[10] = second compound 0.1 µM, first compound 1 µM
[11] = second compound 0.1 µM, first compound 3.16 µM
[12] = second compound 0.1 µM, first compound 10 µM
[13] = second compound 0.316 µM, first compound 0.0316 µM
[14] = second compound 0.316 µM, first compound 0.1 µM
[15] = second compound 0.316 µM, first compound 0.316 µM
[16] = second compound 0.316 µM, first compound 1 µM
[17] = second compound 0.316 µM, first compound 3.16 µM
[18] = second compound 0.316 µM, first compound 10 µM
[19] = second compound 1 µM, first compound 0.0316 µM
[20] = second compound 1 µM, first compound 0.1 µM
[21] = second compound 1 µM, first compound 0.316 µM
[22] = second compound 1 µM, first compound 1 µM
[23] = second compound 1 µM, first compound 3.16 µM
[24] = second compound 1 µM, first compound 10 µM
[25] = second compound 3.16 µM, first compound 0.0316 µM
[26] = second compound 3.16 µM, first compound 0.1 µM
[27] = second compound 3.16 µM, first compound 0.316 µM
[28] = second compound 3.16 µM, first compound 1 µM
[29] = second compound 3.16 µM, first compound 3.16 µM
[30] = second compound 3.16 µM, first compound 10 µM
[31] = second compound 10 µM, first compound 0.0316 µM
[32] = second compound 10 µM, first compound 0.1 µM
[33] = second compound 10 µM, first compound 0.316 µM
[34] = second compound 10 µM, first compound 1 µM
[35] = second compound 10 µM, first compound 3.16 µM
[36] = second compound 10 µM, first compound 10 µM
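Further: spheroids exposed to compounds for one week before readout.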
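Wherever viability, T/C is given: percent viability relative to vehicle DMSO wells taken as 100%.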

C#Cc1c(F)ccc2cc(O)cc(-c3ncc4c(N5CC6CCC(C5)N6)nc(OCC56CCCN5CC(F)C6)nc4c3F)c12 (stereo unspecified) + Cc1cnc(CNC(=O)c2c(=O)c3ccc(N4CCCN(C)CC4)nc3n3c2sc2ccccc23)cn1
IC50 (second compound 0.0316 µM): > 10 µM
IC50 (second compound 0.1 µM): > 10 µM
IC50 (second compound 0.316 µM): < 0.0316 µM
IC50 (second compound 1 µM): < 0.0316 µM
IC50 (second compound 3.16 µM): < 0.0316 µM
IC50 (second compound 10 µM): < 0.0316 µM
viability, T/C [1]: 101%
viability, T/C [2]: 81.6%
viability, T/C [3]: 72.6%
viability, T/C [4]: 64.5%
viability, T/C [5]: 76.5%
viability, T/C [6]: 63.5%
viability, T/C [7]: 59%
viability, T/C [8]: 64.7%
viability, T/C [9]: 54.6%
viability, T/C [10]: 61.5%
viability, T/C [11]: 68.3%
viability, T/C [12]: 64.3%
viability, T/C [13]: 23.7%
viability, T/C [14]: 24.6%
viability, T/C [15]: 22.4%
viability, T/C [16]: 19.5%
viability, T/C [17]: 22.6%
viability, T/C [18]: 25.7%
viability, T/C [19]: 3.9%
viability, T/C [20]: 5%
viability, T/C [21]: 2.72%
viability, T/C [22]: 2.84%
viability, T/C [23]: 3.14%
viability, T/C [24]: 1.95%
viability, T/C [25]: 2.08%
viability, T/C [26]: 2.35%
viability, T/C [27]: 1.86%
viability, T/C [28]: 1.3%
viability, T/C [29]: 1.63%
viability, T/C [30]: 0.57%
viability, T/C [31]: 0.16%
viability, T/C [32]: 0.2%
viability, T/C [33]: 0.25%
viability, T/C [34]: 0.19%
viability, T/C [35]: 0.24%
viability, T/C [36]: 0.21%

CC(C)n1c(=O)n(C)c2cnc3cc(F)c(-c4ccc(OCCCN5CCCCC5)nc4)cc3c21 + CN(C)c1ccc(Nc2c3ccc(NC(=O)CCN4CCCC4)cc3nc3cc(NC(=O)CCN4CCCC4)ccc23)cc1
IC50 (second compound 0.0316 µM): > 10 µM
IC50 (second compound 0.1 µM): > 10 µM
IC50 (second compound 0.316 µM): > 10 µM
IC50 (second compound 1 µM): > 10 µM
IC50 (second compound 3.16 µM): > 10 µM
IC50 (second compound 10 µM): > 10 µM
viability, T/C [1]: 108%
viability, T/C [2]: 96.8%
viability, T/C [3]: 108%
viability, T/C [4]: 104%
viability, T/C [5]: 105%
viability, T/C [6]: 102%
viability, T/C [7]: 103%
viability, T/C [8]: 101%
viability, T/C [9]: 103%
viability, T/C [10]: 105%
viability, T/C [11]: 104%
viability, T/C [12]: 102%
viability, T/C [13]: 103%
viability, T/C [14]: 103%
viability, T/C [15]: 104%
viability, T/C [16]: 99.1%
viability, T/C [17]: 115%
viability, T/C [18]: 98.3%
viability, T/C [19]: 101%
viability, T/C [20]: 92.3%
viability, T/C [21]: 103%
viability, T/C [22]: 95%
viability, T/C [23]: 103%
viability, T/C [24]: 94%
viability, T/C [25]: 90.7%
viability, T/C [26]: 83.5%
viability, T/C [27]: 93.1%
viability, T/C [28]: 85.5%
viability, T/C [29]: 98.1%
viability, T/C [30]: 70.3%
viability, T/C [31]: 72.8%
viability, T/C [32]: 74.7%
viability, T/C [33]: 76%
viability, T/C [34]: 74.4%
viability, T/C [35]: 74.9%
viability, T/C [36]: 63.7%

Nc1ccn(C2OC(CO)C(O)C2(F)F)c(=O)n1 (stereo unspecified) + CN(C)c1ccc(Nc2c3ccc(NC(=O)CCN4CCCC4)cc3nc3cc(NC(=O)CCN4CCCC4)ccc23)cc1
IC50 (second compound 0.0316 µM): 0.366 µM
IC50 (second compound 0.1 µM): 0.383 µM
IC50 (second compound 0.316 µM): 0.357 µM
IC50 (second compound 1 µM): 0.379 µM
IC50 (second compound 3.16 µM): 0.497 µM
IC50 (second compound 10 µM): 0.639 µM
viability, T/C [1]: 99.8%
viability, T/C [2]: 78.5%
viability, T/C [3]: 56.7%
viability, T/C [4]: 26.6%
viability, T/C [5]: 15.5%
viability, T/C [6]: 16.1%
viability, T/C [7]: 98.8%
viability, T/C [8]: 81.3%
viability, T/C [9]: 58.3%
viability, T/C [10]: 22.9%
viability, T/C [11]: 15%
viability, T/C [12]: 15.7%
viability, T/C [13]: 98.5%
viability, T/C [14]: 81.3%
viability, T/C [15]: 57%
viability, T/C [16]: 18.1%
viability, T/C [17]: 14.6%
viability, T/C [18]: 15.6%
viability, T/C [19]: 97%
viability, T/C [20]: 77.3%
viability, T/C [21]: 60%
viability, T/C [22]: 19.4%
viability, T/C [23]: 16.6%
viability, T/C [24]: 14.5%
viability, T/C [25]: 83.2%
viability, T/C [26]: 75.9%
viability, T/C [27]: 65.2%
viability, T/C [28]: 27%
viability, T/C [29]: 18.3%
viability, T/C [30]: 16.5%
viability, T/C [31]: 73.8%
viability, T/C [32]: 73.4%
viability, T/C [33]: 60.7%
viability, T/C [34]: 43.8%
viability, T/C [35]: 24.3%
viability, T/C [36]: 21.8%
